Laboratory results taken from US9340590B2 (priority 2011, dated 2016).
Read-outs that look alike come from different tables or passages of the source. Positions of bridges follow the written chain, without caps; N, C: chain ends. Non-standard residues stand in square brackets, D forms with d. Residues, ends and D or L forms follow the SMILES beside them. *: point of attachment. Phe(3,4-(OMe)2) = COc1ccc(C[C@H](N)C(=O)O)cc1OC; Pent4ynoyl = C#CCCC(=O)*; Pra = C#CC[C@H](N)C(=O)O; Abu = CC[C@H](N)C(=O)O

How the values were obtained:
Test in all cases: cell-based
hNav1.7 = hNav1.7 (Homo sapiens, UniProt Q15858); assay type: cell-based
hNav1.7, sequence (Q15858 whole entry, looked up): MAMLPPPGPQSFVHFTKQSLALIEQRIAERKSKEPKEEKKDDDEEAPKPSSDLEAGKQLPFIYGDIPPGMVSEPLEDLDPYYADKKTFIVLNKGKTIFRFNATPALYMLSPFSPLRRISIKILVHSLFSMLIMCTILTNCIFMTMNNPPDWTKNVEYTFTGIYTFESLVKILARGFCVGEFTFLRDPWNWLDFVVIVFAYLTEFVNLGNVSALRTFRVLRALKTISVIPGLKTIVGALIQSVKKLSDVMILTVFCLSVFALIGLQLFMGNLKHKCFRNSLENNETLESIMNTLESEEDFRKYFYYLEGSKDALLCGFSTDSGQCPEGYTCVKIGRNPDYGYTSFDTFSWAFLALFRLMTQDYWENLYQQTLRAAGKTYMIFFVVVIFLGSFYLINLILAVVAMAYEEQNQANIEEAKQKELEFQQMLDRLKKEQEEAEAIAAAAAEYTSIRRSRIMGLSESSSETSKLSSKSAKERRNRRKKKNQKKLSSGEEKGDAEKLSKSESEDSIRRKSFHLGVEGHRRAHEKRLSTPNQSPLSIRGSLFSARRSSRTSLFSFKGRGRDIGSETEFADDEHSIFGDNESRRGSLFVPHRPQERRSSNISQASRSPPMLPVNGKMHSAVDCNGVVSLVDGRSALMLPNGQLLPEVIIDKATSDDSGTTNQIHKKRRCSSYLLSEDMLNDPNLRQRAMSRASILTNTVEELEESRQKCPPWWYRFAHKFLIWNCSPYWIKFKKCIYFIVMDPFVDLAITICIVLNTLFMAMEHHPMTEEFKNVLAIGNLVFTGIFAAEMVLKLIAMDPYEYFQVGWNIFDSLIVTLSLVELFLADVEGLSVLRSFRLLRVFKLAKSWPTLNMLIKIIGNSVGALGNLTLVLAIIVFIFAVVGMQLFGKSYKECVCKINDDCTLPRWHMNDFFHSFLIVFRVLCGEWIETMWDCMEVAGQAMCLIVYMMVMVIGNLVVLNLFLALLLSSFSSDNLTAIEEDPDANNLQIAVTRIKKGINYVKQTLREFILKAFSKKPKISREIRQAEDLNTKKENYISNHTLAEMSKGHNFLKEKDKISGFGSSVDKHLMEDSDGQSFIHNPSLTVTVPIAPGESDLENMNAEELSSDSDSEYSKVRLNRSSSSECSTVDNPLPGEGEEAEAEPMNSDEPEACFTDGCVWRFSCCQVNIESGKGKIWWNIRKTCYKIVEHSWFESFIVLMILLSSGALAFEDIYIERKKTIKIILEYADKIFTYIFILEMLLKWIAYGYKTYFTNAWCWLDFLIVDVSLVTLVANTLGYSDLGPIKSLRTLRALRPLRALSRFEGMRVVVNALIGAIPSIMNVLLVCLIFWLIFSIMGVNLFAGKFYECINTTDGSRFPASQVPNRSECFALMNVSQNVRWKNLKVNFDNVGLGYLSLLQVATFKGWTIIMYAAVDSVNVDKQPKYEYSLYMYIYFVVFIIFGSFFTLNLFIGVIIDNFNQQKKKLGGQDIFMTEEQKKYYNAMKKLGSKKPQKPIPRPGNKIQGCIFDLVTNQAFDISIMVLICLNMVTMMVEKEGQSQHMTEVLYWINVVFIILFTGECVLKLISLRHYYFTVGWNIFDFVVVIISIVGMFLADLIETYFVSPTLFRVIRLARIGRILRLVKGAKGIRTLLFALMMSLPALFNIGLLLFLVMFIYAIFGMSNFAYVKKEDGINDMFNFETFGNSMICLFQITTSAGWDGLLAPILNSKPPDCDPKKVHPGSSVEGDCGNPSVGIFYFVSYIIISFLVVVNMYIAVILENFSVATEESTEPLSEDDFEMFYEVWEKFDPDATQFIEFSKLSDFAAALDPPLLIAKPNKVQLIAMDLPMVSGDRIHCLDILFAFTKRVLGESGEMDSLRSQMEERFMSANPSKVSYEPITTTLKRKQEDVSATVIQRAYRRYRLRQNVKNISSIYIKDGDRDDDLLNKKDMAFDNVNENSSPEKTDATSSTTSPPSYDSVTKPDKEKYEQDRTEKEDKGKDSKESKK

hNav1.3 = hNav1.3 (Homo sapiens, UniProt Q9NY46); conditions: IonWorks Quattro, read-out: IWQ Use Nav1.3
hNav1.3, sequence (Q9NY46 whole entry, looked up): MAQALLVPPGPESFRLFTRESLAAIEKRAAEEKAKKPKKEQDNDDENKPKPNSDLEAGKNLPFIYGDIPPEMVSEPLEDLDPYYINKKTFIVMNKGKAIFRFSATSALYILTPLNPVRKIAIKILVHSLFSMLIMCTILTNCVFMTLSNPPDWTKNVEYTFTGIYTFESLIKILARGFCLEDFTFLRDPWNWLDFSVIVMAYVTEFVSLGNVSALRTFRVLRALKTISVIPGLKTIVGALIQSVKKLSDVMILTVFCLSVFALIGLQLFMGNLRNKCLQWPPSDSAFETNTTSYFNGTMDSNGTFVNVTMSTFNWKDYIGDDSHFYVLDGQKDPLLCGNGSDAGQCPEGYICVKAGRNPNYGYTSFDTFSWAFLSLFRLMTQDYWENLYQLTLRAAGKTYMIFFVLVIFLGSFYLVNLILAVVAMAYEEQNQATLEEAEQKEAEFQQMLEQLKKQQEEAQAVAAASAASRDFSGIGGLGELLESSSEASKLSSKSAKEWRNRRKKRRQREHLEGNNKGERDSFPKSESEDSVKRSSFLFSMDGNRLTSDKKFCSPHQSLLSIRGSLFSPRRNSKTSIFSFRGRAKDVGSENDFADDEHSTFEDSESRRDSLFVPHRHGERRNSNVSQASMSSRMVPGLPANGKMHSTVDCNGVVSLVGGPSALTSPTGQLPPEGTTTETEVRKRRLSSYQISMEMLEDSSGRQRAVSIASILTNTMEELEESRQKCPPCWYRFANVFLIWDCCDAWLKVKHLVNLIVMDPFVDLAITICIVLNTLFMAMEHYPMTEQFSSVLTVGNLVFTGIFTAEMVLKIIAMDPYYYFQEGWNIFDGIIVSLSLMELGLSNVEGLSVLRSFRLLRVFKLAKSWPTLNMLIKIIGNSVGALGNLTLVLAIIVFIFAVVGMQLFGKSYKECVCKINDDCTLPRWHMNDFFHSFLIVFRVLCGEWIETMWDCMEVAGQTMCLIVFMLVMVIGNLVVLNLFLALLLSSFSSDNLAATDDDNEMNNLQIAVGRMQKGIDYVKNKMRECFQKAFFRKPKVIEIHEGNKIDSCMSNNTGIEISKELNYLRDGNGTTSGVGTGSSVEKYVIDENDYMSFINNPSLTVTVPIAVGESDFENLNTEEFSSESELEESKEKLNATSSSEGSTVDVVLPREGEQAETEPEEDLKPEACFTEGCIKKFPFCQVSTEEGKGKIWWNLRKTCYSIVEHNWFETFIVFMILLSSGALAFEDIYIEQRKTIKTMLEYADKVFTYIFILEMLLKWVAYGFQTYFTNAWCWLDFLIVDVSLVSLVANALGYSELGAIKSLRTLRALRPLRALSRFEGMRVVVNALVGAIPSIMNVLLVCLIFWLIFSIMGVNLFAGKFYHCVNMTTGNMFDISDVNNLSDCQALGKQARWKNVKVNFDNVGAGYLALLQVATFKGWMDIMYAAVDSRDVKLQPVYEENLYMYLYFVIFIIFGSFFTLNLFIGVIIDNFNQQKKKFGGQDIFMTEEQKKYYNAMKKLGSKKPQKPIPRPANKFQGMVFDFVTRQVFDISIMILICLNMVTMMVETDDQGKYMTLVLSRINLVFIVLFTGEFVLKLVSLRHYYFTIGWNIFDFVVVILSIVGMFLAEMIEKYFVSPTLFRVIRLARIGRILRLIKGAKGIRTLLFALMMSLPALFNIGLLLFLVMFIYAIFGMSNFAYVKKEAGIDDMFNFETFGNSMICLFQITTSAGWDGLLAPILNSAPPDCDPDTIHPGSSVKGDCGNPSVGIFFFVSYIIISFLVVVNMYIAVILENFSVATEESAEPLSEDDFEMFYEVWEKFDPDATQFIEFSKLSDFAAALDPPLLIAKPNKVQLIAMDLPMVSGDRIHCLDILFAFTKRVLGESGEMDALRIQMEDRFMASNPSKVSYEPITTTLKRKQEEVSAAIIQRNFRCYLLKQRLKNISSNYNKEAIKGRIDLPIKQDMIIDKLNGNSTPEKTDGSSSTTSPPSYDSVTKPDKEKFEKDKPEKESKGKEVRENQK

hNav1.5 = hNav1.5 (Homo sapiens, UniProt Q14524); conditions: IonWorks Quattro, read-out: IWQ Use Nav1.5
[1] = IonWorks Quattro, use-dependent block, hNav1.7, read-out: IWQ Use Nav1.7
[2] = clamped to −110 mV, depolarized to −10 mV, 5 min after compound, n=2

C#CCCC(=O)NCCCC[C@@H]1NC(=O)[C@H](CC(=O)O)NC(=O)[C@@H]2CCCN2C(=O)[C@H]([C@@H](C)CC)NC(=O)[C@@H]2CSSC[C@@H]3NC(=O)[C@H](C(C)C)NC(=O)[C@H](CC(C)C)NC(=O)[C@H](CC(N)=O)NC(=O)[C@@H]4CCCN4C(=O)[C@H](CCCNC(=N)N)NC(=O)[C@H](CSSC[C@H](NC(=O)[C@@H](N)CC(=O)O)C(=O)N[C@@H](CC(C)C)C(=O)NCC(=O)N[C@@H](CC)C(=O)N[C@@H](CC(C)C)C(=O)N[C@@H](CCCNC(=N)N)C(=O)N[C@@H](CCCCN)C(=O)N2)NC(=O)[C@H](CSSC[C@@H](C(=O)N[C@@H](CCCCN)C(=O)N[C@@H](Cc2ccc(O)cc2)C(=O)N[C@H](C(=O)N[C@@H](Cc2ccccc2)C(N)=O)C(C)C)NC(=O)[C@H](Cc2c[nH]c4ccccc24)NC(=O)[C@H](CCCNC(=N)N)NC(=O)[C@H](Cc2c[nH]cn2)NC(=O)[C@H]([C@@H](C)O)NC(=O)[C@H](CCCNC(=N)N)NC(=O)[C@H](CO)NC3=O)NC(=O)[C@H](CCCCN)NC(=O)[C@H](CC(=O)O)NC1=O [compound 801] (H-DCLG[Abu]LRKCIPDK(Pent4ynoyl)DKCCRPNLVCSRTHRWCKYVF-NH2; disulfide 2-17, 9-23, 16-30)
IC50 (hNav1.7; [1]): 0.55 µM
IC50 (hNav1.3; use-dependent block, hNav1.3): 0.81 µM
IC50 (hNav1.5; use-dependent block, hNav1.5): 39.7 µM

CC[C@H](C)[C@@H]1NC(=O)[C@@H]2CSSC[C@@H]3NC(=O)[C@H](C(C)C)NC(=O)[C@H](CC(C)C)NC(=O)[C@H](CC(N)=O)NC(=O)[C@@H]4CCCN4C(=O)[C@H](CCCNC(=N)N)NC(=O)[C@H](CSSC[C@H](NC(=O)[C@@H](N)CC(=O)O)C(=O)N[C@@H](CC(C)C)C(=O)NCC(=O)N[C@@H](Cc4ccc(OC)c(OC)c4)C(=O)N[C@@H](Cc4ccccc4)C(=O)N[C@@H](CCCNC(=N)N)C(=O)N[C@@H](CCCCN)C(=O)N2)NC(=O)[C@H](CSSC[C@@H](C(=O)N[C@@H](CCCCN)C(=O)N[C@@H](Cc2ccc(O)cc2)C(=O)N[C@H](C(=O)N[C@@H](Cc2ccccc2)C(N)=O)C(C)C)NC(=O)[C@H](Cc2c[nH]c4ccccc24)NC(=O)[C@H](CCCCN)NC(=O)[C@H](Cc2c[nH]cn2)NC(=O)[C@H]([C@@H](C)O)NC(=O)[C@H](CCCNC(=N)N)NC(=O)[C@H](CO)NC3=O)NC(=O)[C@H](CCCCN)NC(=O)[C@H](CC(=O)O)NC(=O)[C@H](CC(N)=O)NC(=O)[C@H](CC(=O)O)NC(=O)[C@@H]2CCCN2C1=O [compound 620] (H-DCLG[Phe(3,4-(OMe)2)]FRKCIPDNDKCCRPNLVCSRTHKWCKYVF-NH2; disulfide 2-17, 9-23, 16-30)
IC50 (hNav1.7; IonWorks Quattro, use-dependent protocol, hNav1.7, read-out: IWQ Use Nav1.7): 0.64 µM
IC50 (hNav1.3; use-dependent protocol, hNav1.3): 0.99 µM
IC50 (hNav1.5; use-dependent protocol, hNav1.5): 10.4 µM

CC[C@H](C)[C@@H]1NC(=O)[C@@H]2CSSC[C@@H]3NC(=O)[C@H](C(C)C)NC(=O)[C@H](CC(C)C)NC(=O)[C@H](CC(N)=O)NC(=O)[C@@H]4CCCN4C(=O)[C@H](CCCNC(=N)N)NC(=O)[C@H](CSSC[C@H](NC(=O)[C@@H](N)CC(=O)O)C(=O)N[C@@H](CC(C)C)C(=O)NCC(=O)N[C@@H](Cc4ccccc4)C(=O)N[C@@H](Cc4c[nH]cn4)C(=O)N[C@@H](CCCNC(=N)N)C(=O)N[C@@H](CCCCN)C(=O)N2)NC(=O)[C@H](CSSC[C@@H](C(=O)N[C@@H](CCCCN)C(=O)N[C@@H](Cc2ccc(O)cc2)C(=O)N[C@H](C(=O)N[C@@H](Cc2ccccc2)C(N)=O)C(C)C)NC(=O)[C@H](Cc2c[nH]c4ccccc24)NC(=O)[C@H](CCCCN)NC(=O)[C@H](Cc2c[nH]cn2)NC(=O)[C@H]([C@@H](C)O)NC(=O)[C@H](CCCNC(=N)N)NC(=O)[C@H](CO)NC3=O)NC(=O)[C@H](CCCCN)NC(=O)[C@H](CC(=O)O)NC(=O)[C@H](CC(N)=O)NC(=O)[C@H](CC(=O)O)NC(=O)[C@@H]2CCCN2C1=O [SEQ ID NO: 281] (H-DCLGFHRKCIPDNDKCCRPNLVCSRTHKWCKYVF-NH2; disulfide 2-17, 9-23, 16-30)
IC50 (hNav1.7; IonWorks Quattro, clamped to −110 mV, depolarized to −10 mV, 5 min after compound, n=2, read-out: IWQ Use Nav1.7): 4.72 µM
IC50 (hNav1.3; [2]): 7.77 µM
IC50 (hNav1.5; [2]): 10.1 µM

CC[C@H](C)[C@@H]1NC(=O)[C@@H]2CSSC[C@@H]3NC(=O)[C@H](C(C)C)NC(=O)[C@H](CC(C)C)NC(=O)[C@H](CC(N)=O)NC(=O)[C@@H]4CCCN4C(=O)[C@H](CCCNC(=N)N)NC(=O)[C@H](CSSC[C@H](NC(=O)[C@@H](N)CC(=O)O)C(=O)N[C@@H](CC(C)C)C(=O)NCC(=O)N[C@@H](C)C(=O)N[C@@H](CC(C)C)C(=O)N[C@@H](CCCNC(=N)N)C(=O)N[C@@H](CCCCN)C(=O)N2)NC(=O)[C@H](CSSC[C@@H](C(=O)N[C@@H](CCCCN)C(=O)N[C@@H](Cc2ccc(O)cc2)C(=O)N[C@H](C(=O)N[C@@H](Cc2ccccc2)C(=O)O)C(C)C)NC(=O)[C@H](Cc2c[nH]c4ccccc24)NC(=O)[C@H](CCCNC(=N)N)NC(=O)[C@H](Cc2c[nH]cn2)NC(=O)[C@H]([C@@H](C)O)NC(=O)[C@H](CCCNC(=N)N)NC(=O)[C@H](CO)NC3=O)NC(=O)[C@H](CCCCN)NC(=O)[C@H](CC(=O)O)NC(=O)[C@H](C(C)C)NC(=O)[C@H](CC(=O)O)NC(=O)[C@@H]2CCCN2C1=O [compound 872] (H-DCLGALRKCIPDVDKCCRPNLVCSRTHRWCKYVF-OH; disulfide 2-17, 9-23, 16-30)
IC50 (hNav1.7; [1]): > 5 µM
IC50 (hNav1.3; use-dependent block, hNav1.3): > 5 µM
IC50 (hNav1.5; use-dependent block, hNav1.5): > 5 µM

CC[C@H](C)[C@@H]1NC(=O)[C@@H]2CSSC[C@@H]3NC(=O)[C@H](C(C)C)NC(=O)[C@H](CC(C)C)NC(=O)[C@H](CC(N)=O)NC(=O)[C@@H]4CCCN4C(=O)[C@H](CCCNC(=N)N)NC(=O)[C@H](CSSC[C@H](NC(=O)[C@@H](N)CC(=O)O)C(=O)N[C@@H](CC(C)C)C(=O)NCC(=O)N[C@@H](C)C(=O)N[C@@H](Cc4c[nH]c5ccccc45)C(=O)N[C@@H](CCCNC(=N)N)C(=O)N[C@@H](CCCCN)C(=O)N2)NC(=O)[C@H](CSSC[C@@H](C(=O)N[C@@H](CCCCN)C(=O)N[C@@H](Cc2ccc(O)cc2)C(=O)N[C@H](C(=O)N[C@@H](Cc2ccccc2)C(N)=O)C(C)C)NC(=O)[C@H](Cc2c[nH]c4ccccc24)NC(=O)[C@H](CCCCN)NC(=O)[C@H](Cc2cnc[nH]2)NC(=O)[C@H]([C@@H](C)O)NC(=O)[C@H](CCCNC(=N)N)NC(=O)[C@H](CO)NC3=O)NC(=O)[C@H](CCCCN)NC(=O)[C@H](CC(=O)O)NC(=O)[C@H](CC(N)=O)NC(=O)[C@H](CC(=O)O)NC(=O)[C@@H]2CCCN2C1=O [compound 261] (H-DCLGAWRKCIPDNDKCCRPNLVCSRTHKWCKYVF-NH2; disulfide 2-17, 9-23, 16-30)
IC50 (hNav1.7): 1.01 µM
IC50 (hNav1.3; use-dependent block, hNav1.3): 0.67 µM
IC50 (hNav1.5; use-dependent block, hNav1.5): 5 µM

C#CC[C@@H]1NC(=O)[C@H](CC(=O)O)NC(=O)[C@@H]2CCCN2C(=O)[C@H]([C@@H](C)CC)NC(=O)[C@@H]2CSSC[C@@H]3NC(=O)[C@H](C(C)C)NC(=O)[C@H](CC(C)C)NC(=O)[C@H](CC(N)=O)NC(=O)[C@@H]4CCCN4C(=O)[C@H](CCCNC(=N)N)NC(=O)[C@H](CSSC[C@H](NC(=O)[C@@H](N)CC(=O)O)C(=O)N[C@@H](CC(C)C)C(=O)NCC(=O)N[C@@H](CC)C(=O)N[C@@H](CC(C)C)C(=O)N[C@@H](CCCNC(=N)N)C(=O)N[C@@H](CCCCN)C(=O)N2)NC(=O)[C@H](CSSC[C@@H](C(=O)N[C@@H](CCCCN)C(=O)N[C@@H](Cc2ccc(O)cc2)C(=O)N[C@H](C(=O)N[C@@H](Cc2ccccc2)C(N)=O)C(C)C)NC(=O)[C@H](Cc2c[nH]c4ccccc24)NC(=O)[C@H](CCCCN)NC(=O)[C@H](Cc2c[nH]cn2)NC(=O)[C@H]([C@@H](C)O)NC(=O)[C@H](CCCNC(=N)N)NC(=O)[C@H](CO)NC3=O)NC(=O)[C@H](CCCCN)NC(=O)[C@H](CC(=O)O)NC1=O [compound 797] (H-DCLG[Abu]LRKCIPD[Pra]DKCCRPNLVCSRTHKWCKYVF-NH2; disulfide 2-17, 9-23, 16-30)
IC50 (hNav1.7; [1]): 0.52 µM
IC50 (hNav1.3; use-dependent block, hNav1.3): 0.93 µM
IC50 (hNav1.5; use-dependent block, hNav1.5): 34 µM
